Test results from article PMC4503722, “Novel Phenotypic Outcomes Identified for a Public Collection of Approved Drugs from a Publicly Accessible Panel of Assays” (PLoS ONE, 2015).
pEC50, pIC50: −log10 of the molar value. Like-named read-outs stand apart in the source and are kept apart here.

Key:
Test in all cases: cells
[1] = system: nuclear β-catenin in C2C12 cells; assay type: cell-based
[2] = system: INS-1E cells; assay type: cell-based, rat
[3] = system: NCI-H716 cells; assay type: cell-based, Human
[4] = system: HeLa cells; assay type: cell-based; conditions: for pEC50: read-out: CellCycle G2/M
[5] = system: DLD-1; assay type: cell-based
[6] = system: Colo320; assay type: cell-based
[7] = system: HT-29; assay type: cell-based; conditions: Homo sapiens, HT-29; Table 2; 72 h, Cell TiterGlo, non-adherent; 20 coded; read-out: HT-29 viab. IC50
[8] = system: RKO; assay type: cell-based
[9] = system: SNU-C1; assay type: cell-based; conditions: Homo sapiens, SNU-C1, 72 h, Table 2; 72 h, Cell TiterGlo, non-adherent; 20 coded; read-out: SNU-C1 viab. IC50
[10] = system: endothelial tube formation in co-cultures of ECFCs and ADSCs treated with VEGF; assay type: cell-based, human
[11] = system: SW480; assay type: cell-based
[12] = system: HCT116 cells treated with a GSK3β inhibitor; assay type: cell-based
[13] = system: HCT116; assay type: cell-based
[14] = Mus musculus, C2C12, Table 2, C2C12, […], 20 / 20.1 coded, read-out: Wnt pot. EC50
[15] = Rattus norvegicus, INS-1E, read-out: Ins. sec. EC50
[16] = Homo sapiens, NCI-H716, read-out: GLP1 sec. EC50
[17] = Homo sapiens, HeLa, S2 Table, HeLa, 20 = no response at highest concentration
[18] = Homo sapiens, DLD-1, 72 h, Table 2, 72 h, Cell TiterGlo, non-adherent, 20 coded, read-out: DLD-1 viab. IC50
[19] = Homo sapiens; read-out: Anti-Angio IC50
[20] = Homo sapiens, HCT-116, GSK3b inhibitor pretreated, read-out: GSK3b inh pretreated_Viability ATP HCT116
[21] = Homo sapiens, SW480, 72 h, Table 2, 72 h, Cell TiterGlo, non-adherent, 20 coded, read-out: SW480 viab. IC50
[22] = Homo sapiens, HCT-116, 72 h, read-out: HCT-116 viab. IC50, Table 2, basal, 72 h, Cell TiterGlo, non-adherent, 20 coded
[23] = Homo sapiens, HCT-116, read-out: HCT-116 (GSK3β) viab. IC50, Table 2, GSK3β inhibitor LY2090314 20 nM, 72 h, Cell TiterGlo, 20 coded

SMILES: CC(C)n1c(/C=C/C(O)CC(O)CC(=O)O)c(-c2ccc(F)cc2)c2ccccc21 (stereo not shown) [fluvastatin, reference compound]
- pEC50 [1, 14]: < 5.00
- pEC50 [2, 15]: < 5.00
- pEC50 [3, 16]: < 5.00
- pEC50 [4, 17]: < 5.00
- pIC50 [5, 18]: < 4.70
- pIC50 ([6]; Homo sapiens, COLO 320, read-out: Basal_Viability ATP Colo 320): 4.88
- pIC50 ([6]; Homo sapiens, COLO 320; Table 2; 72 h, Cell TiterGlo, non-adherent; 20 coded; read-out: Colo320 viab. IC50): 4.89
- pIC50 [7]: < 4.70
- pIC50 ([8]; Homo sapiens, RKO, read-out: Basal_Viability ATP RKO): 4.72
- pIC50 ([8]; Homo sapiens, RKO; Table 2; 72 h, Cell TiterGlo, non-adherent; 20 coded; read-out: RKO viab. IC50): 4.72
- pIC50 [9]: < 4.70

SMILES: CN(Cc1cnc2nc(N)nc(N)c2n1)c1ccc(C(=O)N[C@@H](CCC(=O)O)C(=O)O)cc1 [methotrexate, reference compound]
- pIC50 [10, 19]: < 5.00
- pEC50 ([1]; Mus musculus, C2C12, read-out: Wnt Pathway): 7.94
- pEC50 ([1]; Mus musculus, C2C12, read-out: Wnt pot. EC50): 7.92
- pEC50 [2, 15]: < 5.00
- pEC50 [3, 16]: < 5.00
- pEC50 [4, 17]: < 5.00
- pIC50 [5, 18]: 6.15
- pIC50 ([5]; Homo sapiens, DLD-1, basal, DLD-1, read-out: Basal_Viability ATP DLD-1): 6.15
- pIC50 [9]: < 4.70

SMILES: COc1cccc2c1C(=O)c1c(O)c3c(c(O)c1C2=O)C[C@@](O)(C(=O)CO)C[C@@H]3O[C@H]1C[C@H](N2CCO[C@H](OC)C2)[C@H](O)[C@H](C)O1 [nemorubicin]
- pIC50 ([10]; Homo sapiens, IC50 / EC50; endothelial tube area, ADSC/ECFC co-culture; read-out: Anti-Angiogenesis): 8.52
- pEC50 ([1]; Mus musculus, IC50 / EC50, C2C12 beta-catenin translocation, read-out: Wnt Pathway): 7.87
- pEC50 ([2]; Rattus norvegicus, IC50 / EC50, INS-1E, read-out: Insulin Secretion): < 5.00
- pEC50 ([3]; Homo sapiens, IC50 / EC50, NCI-H716, read-out: GLP 1 Secretion): < 5.00
- pEC50 ([4]; Homo sapiens, IC50 / EC50, HeLa): < 5.00
- pIC50 ([5]; Homo sapiens, DLD-1, read-out: Basal_Viability ATP DLD-1): 9.00
- pIC50 ([11]; Homo sapiens, SW480, read-out: Basal_Viability ATP SW480): 9.00
- pIC50 [12, 20]: 9.00
- pIC50 ([6]; Homo sapiens, COLO 320; read-out: Basal_Viability ATP Colo 320): 9.00
- pIC50 ([8]; Homo sapiens, RKO; read-out: Basal_Viability ATP RKO): 9.00

SMILES: CC(C)=CCC/C(C)=C/CC/C(C)=C/C(=O)OCC(=O)[C@@]1(O)CC[C@H]2[C@@H]3CCC4=CC(=O)C=C[C@]4(C)[C@H]3[C@@H](O)C[C@@]21C [prednisolone farnesil]
- pIC50 ([10]; read-out: Anti-Angiogenesis): 5.48
- pEC50 ([1]; read-out: Wnt Pathway): < 5.00
- pEC50 ([2]; read-out: Insulin Secretion): < 5.00
- pEC50 ([3]; read-out: GLP 1 Secretion): < 5.00
- pEC50 [4]: < 5.00
- pIC50 ([5]; read-out: Basal_Viability ATP DLD-1): 5.10
- pIC50 ([11]; read-out: Basal_Viability ATP SW480): 5.09
- pIC50 ([13]; read-out: Basal_Viability ATP HCT116): 5.24
- pIC50 ([12]; read-out: GSK3b inh pretreated_Viability ATP HCT116): 5.14

SMILES: CCN(CC)CCNC(=O)c1c(C)[nH]c(/C=C2\C(=O)Nc3ccc(F)cc32)c1C [sunitinib, reference compound]
- pIC50 ([10]; Homo sapiens, read-out: Anti-Angio IC50): 7.60
- pIC50 ([10]; Homo sapiens, read-out: Anti-Angiogenesis): 7.60
- pEC50 [1, 14]: < 5.00
- pEC50 [2, 15]: < 4.70
- pEC50 [3, 16]: < 5.00
- pEC50 ([4]; Homo sapiens, HeLa, IC50 / EC50, HeLa): < 5.00
- pIC50 [5, 18]: 5.80
- pIC50 ([5]; Homo sapiens, DLD-1, basal, read-out: Basal_Viability ATP DLD-1): 5.79
- pIC50 [11, 21]: 5.55
- pIC50 ([11]; Homo sapiens, SW480, basal, read-out: Basal_Viability ATP SW480): 5.56
- pIC50 [13, 22]: 5.64
- pIC50 ([13]; Homo sapiens, HCT-116, basal, read-out: Basal_Viability ATP HCT116): 5.64
- pIC50 [12, 23]: 6.44
- pIC50 [12, 20]: 6.44

SMILES: Clc1ccc(Nc2nnc(Cc3ccncc3)c3ccccc23)cc1 [vatalanib, reference compound]
- pIC50 [10, 19]: 6.96
- pIC50 ([10]; Homo sapiens; read-out: Anti-Angiogenesis): 6.96
- activity in the Wnt potentiation module (in words) [1]: None of these agents, however, possessed appreciable activity
- pEC50 [1, 14]: < 5.00
- pEC50 [2, 15]: < 5.00
- pEC50 [3, 16]: < 5.00
- G2/M IC50 / EC50 [4]: 20 (values shown as 20 indicate that the compound was tested in concentration-response and showed no response at the highest concentration tested (e.g. IC50 > 20 μM))
- pEC50 [4, 17]: < 5.00
- pIC50 [5, 18]: < 4.70
- pIC50 [11, 21]: 4.71
- pIC50 ([11]; Homo sapiens, SW480, basal, SW480, read-out: Basal_Viability ATP SW480): 4.71
- pIC50 [13, 22]: < 4.70
- pIC50 [12, 23]: 4.98
- pIC50 ([12]; Homo sapiens, HCT-116, HCT116 pretreated with GSK3b inhibitor, read-out: GSK3b inh pretreated_Viability ATP HCT116): 4.98
